# Data taken from patent US10517889B2, “Modulators of SMAD7 expression” (Ionis Pharmaceuticals, Inc., priority 2017, dated 2019).
# Several values for one entry are separate records, joined by “and”; a condition that tells them apart may be missing. Identical values can stand only once. Strand notation (5' to 3'): a small letter for the sugar, then the base; units joined by * are phosphorothioate-linked, units joined directly phosphodiester-linked; [ ] holds rarer units or linkages, { } end groups; capitals alone tell only the bases. k = constrained ethyl (cEt); [5mC] = 5-methylcytosine; d = 2'-deoxy (DNA)
# Columns and labels:
# [1] = system: human SMAD7 mRNA; experiment: Antisense inhibition of human SMAD7 mRNA expression in Hep3B cells by 3-10-3 cEt gapmers, 10,000 nM, electroporation (Example 2); type: cell-based; conditions: approximately 24 hours
# Outline: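 qRT-PCR (RTS5062) of SMAD7 mRNA, normalised to RIBOGREEN total RNA, gave percent inhibition relative to untreated controls. Hep3B cells at 20,000 per well received 10,000 nM oligonucleotide by electroporation, with ~24 h treatment.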
# [2] = system: human SMAD7 mRNA; experiment: Dose-dependent inhibition of human SMAD7 mRNA expression in Hep3B cells (Example 3, Study 1 and 2); type: cell-based; conditions: electroporation; for % inhibition of SMAD7 mRNA expression: approximately 16 hours; for IC50: Study 2 (740-20000 nM)
# Outline: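 Hep3B cells, 20,000 per well, electroporated with antisense oligonucleotide at 0.31, 1.25, 5.00 or 20.00 μM (first series) or 0.74, 2.22, 6.67 or 20.00 μM (second series). After ~16 h, SMAD7 mRNA measured by RT-qPCR (RTS5062), normalised to RIBOGREEN total RNA. Percent inhibition vs untreated cells; IC50 derived.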
# [3] = Hep3B cells, electroporation with 10,000 nM antisense oligonucleotide, SMAD7 mRNA by RT-PCR (RTS5062), relative to untreated control cells
# [4] = 740 nM, Study 2, relative to untreated control cells
# [5] = Hep3B cells, 10,000 nM antisense oligonucleotide, electroporation, RT-PCR primer probe set RTS5062, relative to untreated control cells
# [6] = SMAD7 mRNA, Hep3B cells, 10,000 nM antisense oligonucleotide, electroporation, primer probe set RTS5062, relative to untreated control cells
# [7] = SMAD7 mRNA, Hep3B cells, electroporation with 10,000 nM antisense oligonucleotide, primer probe set RTS5062, relative to untreated control cells
Substance,"% Inhibition [1, 3] [%]","% inhibition of SMAD7 mRNA expression [2, 4] [%]","% inhibition of SMAD7 mRNA expression ([2]; 2220 nM, Study 2) [%]","% inhibition of SMAD7 mRNA expression ([2]; 6670.0 nM, Study 2) [%]","% inhibition of SMAD7 mRNA expression ([2]; 20000.0 nM, Study 2)",IC50 [2] [µM],"% Inhibition [1, 5] [%]","% inhibition of SMAD7 mRNA expression ([1]; Hep3B cells, electroporation with 10,000 nM antisense oligonucleotide, primer probe set RTS5062, relative to untreated control cells) [%]","% Inhibition [1, 6] [%]","% Inhibition [1, 7] [%]","% inhibition of SMAD7 mRNA expression ([1]; Hep3B cells, electroporation, 10,000 nM, 3-10-3 cEt gapmers targeting SEQ ID NO: 3 and 4) [%]"
799921 (antisense k[5mC]*kT*kA*dA*dT*dT*dA*dG*dT*dG*dA*d[5mC]*dT*kG*kT*kG) [compound 799921],75,10,35,55,58%,11,,,,,
799964 (antisense k[5mC]*k[5mC]*k[5mC]*d[5mC]*dT*dT*dA*dG*d[5mC]*dG*d[5mC]*dA*dT*kT*k[5mC]*kT) [compound 799964],55,4,15,46,61%,> 20,,,,,
799967 (kG*kA*k[5mC]*dG*dA*dT*dG*dA*dA*dT*d[5mC]*d[5mC]*dT*kG*kG*k[5mC]; antisense) [compound 799967],72,0,0,0,20%,9,,,,,
799980 (k[5mC]*k[5mC]*kA*dA*d[5mC]*dG*dG*dT*dT*dG*d[5mC]*d[5mC]*dT*k[5mC]*kA*kT; antisense) [compound 799980],78,22,22,51,61%,13,,,,,
800010 (kG*kT*kT*dA*dT*dT*dT*dA*dA*dT*dT*dA*d[5mC]*k[5mC]*k[5mC]*kT; antisense) [compound 800010],,33,13,47,59%,6,69,,,,
800025 (kA*kG*kT*dA*d[5mC]*dA*dA*dG*dG*dA*d[5mC]*dT*dA*kA*kG*kG; antisense) [compound 800025],65,0,42,55,74%,6,,,,,
800031 (kA*kG*kA*dA*dA*d[5mC]*dA*d[5mC]*dA*dG*dT*dT*d[5mC]*k[5mC]*k[5mC]*kT; antisense) [compound 800031],,10,39,57,69%,8,52,,,,
800048 (antisense kT*kG*kG*dA*dA*dA*dG*dG*dA*dA*dG*dA*d[5mC]*kT*k[5mC]*kG) [compound 800048],64,0,31,58,58%,4,,,,,
800066 (antisense kT*kG*kT*dT*dT*dT*dA*dA*dG*dT*dA*dG*d[5mC]*kA*kG*k[5mC]) [compound 800066],63,7,42,62,82%,9,,,,,
800109 (antisense kA*k[5mC]*kA*dG*d[5mC]*d[5mC]*dA*d[5mC]*dA*dA*dG*dT*d[5mC]*kA*k[5mC]*kA) [compound 800109],86,,,,71% and 67% and 93% and 97%,1,,75,88,,
829734 (antisense kT*k[5mC]*k[5mC]*dG*d[5mC]*dA*d[5mC]*dA*d[5mC]*d[5mC]*dA*dT*dG*kA*kA*kG) [compound 829734],,20,40,69,68%,4,,,71,,
829762 (antisense k[5mC]*k[5mC]*kT*dT*d[5mC]*dA*dG*dA*dT*d[5mC]*d[5mC]*dG*d[5mC]*k[5mC]*kT*k[5mC]) [compound 829762],,27,41,59,78%,> 20,,,67,,
829767 (antisense kG*kG*kA*dG*dG*d[5mC]*dA*d[5mC]*dG*d[5mC]*dG*dG*dT*kG*k[5mC]*kG) [compound 829767],,5,6,36,49%,3,,,66,,
829776 (antisense kG*k[5mC]*kG*dA*dG*dT*dA*dG*dG*dA*d[5mC]*dG*dA*kG*kG*kG) [compound 829776],,26,40,66,81%,5,,,64,,
829864 (antisense kG*kG*kG*dT*dA*dA*d[5mC]*dT*dG*d[5mC]*dT*dG*d[5mC]*kG*kG*kT) [compound 829864],,0,33,67,76%,1,,,,68,
829942 (kG*k[5mC]*kA*dT*d[5mC]*dT*dG*dG*dA*d[5mC]*dA*dG*dT*k[5mC]*kA*kG; antisense) [compound 829942],,44,70,84,94%,< 0.7,,,,,92
829956 (k[5mC]*k[5mC]*kT*dT*dG*dT*d[5mC]*dA*d[5mC]*d[5mC]*d[5mC]*dG*dT*k[5mC]*kT*kG; antisense) [compound 829956],,65,82,89,95%,1,,,,66,
829980 (kT*kT*kG*dA*dT*dA*dT*dT*dT*dA*dG*d[5mC]*dT*kG*kT*k[5mC]; antisense) [compound 829980],,52,63,79,92%,3,,,,56,
829995 (kT*kG*kG*dA*dG*dG*d[5mC]*dA*dG*dG*dG*d[5mC]*d[5mC]*kG*k[5mC]*kG; antisense) [compound 829995],,36,74,76,84%,8,,,,78,
830010 (antisense kG*kT*k[5mC]*dT*d[5mC]*dA*dA*dA*dT*dG*dG*dG*d[5mC]*kT*kT*k[5mC]) [compound 830010],,0,12,52,72%,1,,,,68,
830028 (antisense k[5mC]*kA*kG*dT*d[5mC]*dA*dA*dG*dT*dT*dA*d[5mC]*dA*kG*kT*k[5mC]) [compound 830028],75,54,70,85,93%,3,,,,,
830044 (k[5mC]*kG*kA*dT*dT*dG*dG*d[5mC]*dA*dG*dG*dT*dT*kA*kA*kT; antisense) [compound 830044],60,47,61,80,93%,10,,,,,
830051 (kT*kA*kG*dT*dT*dT*d[5mC]*d[5mC]*dG*dA*dT*dT*dG*kG*k[5mC]*kA; antisense) [compound 830051],84,0,18,42,67%,2,,,,,
830053 (kG*kG*kG*dT*dG*dA*dG*dT*dA*dA*d[5mC]*d[5mC]*dA*kG*k[5mC]*kT; antisense) [compound 830053],68,29,56,79,87%,2,,,,,
